Legend:
S. oneidensis biofilms = test: Stop-of-flow-induced detachment of biofilms in hydrodynamic flow chamber (CLSM, COMSTAT); assay type: cell-based, Shewanella oneidensis MR-1
Method: Transcription is not required for the oxygen starvation-induced detachment. To directly test whether transcription is required for detachment upon rapid decrease in molecular oxygen concentration, we grew biofilms of S. oneidensis in LM medium for 12 h, and subsequently switched the medium to a LM medium amended with 10 μg/ml rifampicin for 10 or 40 minutes, respectively. After that time period, the medium flow was stopped to induce detachment.
External addition of c-di-GMP reversibly prevents biofilm detachment. […] We, therefore, predicted that amending the flow through medium of a biofilm in a hydrodynamic system with c-di-GMP should prevent the induction of detachment after applying a stop-of-flow. To test this hypothesis, biofilms of wild type S. oneidensis were grown in LM medium. […] After 30 min, the flow was stopped to induce detachment and the non-detached biomass was quantified. […]
Microscopic visualization of and image acquisition from biofilms took place at the Stanford Biofilm Research Center using an upright Zeiss LSM510 Confocal Laser Scanning Microscope (Carl Zeiss, Jena, Germany) equipped with the following objectives: 10×/0.3 Plan-Neofluar, 20×/0.5W Achroplan, and 40×/1.2W C-Apochromat. […] Biofilm parameters, such as biomass, and average biofilm thickness were quantified with the program COMSTAT (Heydorn et al., 2000).

[1] = test system: S. oneidensis strain AS129 biofilm cells (IPTG inducible gfp); test: Transcription test in biofilm cells: IPTG-inducible gfp, GFP fluorescence by CLSM; assay type: cell-based, Shewanella oneidensis; conditions: 10 mM IPTG in flow-through medium; after 1 hour
Method: In order to assure that rifampicin indeed inhibited transcription in biofilm cells under those conditions, we designed an experiment to test transcription in biofilm cells. Tester cells were S. oneidensis cells tagged with an IPTG inducible gfp under control of Pt, which is repressed by LacIQ. […] Upon addition of 10 mM ITPG to the flow-through-medium, the induction of GFP in biofilm cells was readily observed by CLSM throughout the entire biofilm and quantified. This assay is very sensitive, and after 1 hour, about 20% of the maximal inducible GFP fluorescence was observed.

Structure (SMILES)	detachment after stop-of-flow following removal of c-di-GMP (S. oneidensis biofilms; flow resumed with LM devoid of c-di-GMP, 2 h incubation, then flow stopped)	detachment after stop-of-flow (S. oneidensis biofilms; wild type biofilm 12 h in LM, medium amended with 5 mM c-di-GMP, flow stopped after 30 min)	GFP fluorescence, share of the maximal inducible GFP fluorescence [1]
Nc1nc2c(ncn2[C@@H]2O[C@@H]3COP(=O)(O)O[C@H]4[C@@H](O)[C@H](n5cnc6c(=O)[nH]c(N)nc65)O[C@@H]4COP(=O)(O)O[C@H]3[C@H]2O)c(=O)[nH]1 [c-di-GMP, cyclic-bis(3′,5′)guanylic acid]	the biofilm still detached	no detachment was observed	
CC(C)S[C@@H]1O[C@H](CO)[C@H](O)[C@H](O)[C@H]1O [IPTG, isopropyl-D-D-thiogalactopyranosid]			about 20%

From patent US20090012038A1, “Methods for microbial biofilm destruction and interference with microbial cellular physiology” (priority 2004, published 2009)
